Assays:
Type in all cases: in vivo
[1] = system: barnyardgrass (Echinochloa crus-galli); assay: Test G Pre-Emergence Protocol; settings: Echinochloa crus-galli, pre-emergence, 312 h, evaluated after 13 days; for pest or weed control at 15.625 g/ha: 15.625 g ai/ha; for pest or weed control at 15.625 g/ha / pest or weed control at 250 g/ha: read-out: Barnyardgrass damage rating (100=total damage to plant; 0=no damage to plant); for pest or weed control at 62.5 g/ha: 62.5 g ai/ha, 100=total damage to plant, 0=no damage to plant, read-out: Barnyardgrass damage rating; for pest or weed control at 250 g/ha: 250 g ai/ha
Procedure, shortened: (§1)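 Pots of seeds in standard soil were grown for one day in a glasshouse (24/16 °C day/night, 14 h light, 65% humidity), then sprayed with compound in acetone/water 50:50 with 0.5% Tween 20 at 15.625, 62.5 or 250 g/ha. Damage was scored after 13 days on a 0 (none) to 100 (total) scale.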

corn (Zea mays) [2] = assay: Test G Pre-Emergence Protocol; settings: Zea mays, pre-emergence, 312 h, evaluated after 13 days; for plant injury at 15.625 g/ha: 15.625 g ai/ha; for plant injury at 15.625 g/ha / plant injury at 250 g/ha: read-out: Corn damage rating (100=total damage to plant; 0=no damage to plant); for plant injury at 62.5 g/ha: 62.5 g ai/ha, 100=total damage to plant, 0=no damage to plant, read-out: Corn damage rating; for plant injury at 250 g/ha: 250 g ai/ha
Procedure, shortened: as §1

[3] = system: giant foxtail (Setaria faberi); assay: Test G Pre-Emergence Protocol; settings: Setaria faberi, pre-emergence, 312 h, evaluated after 13 days; for pest or weed control at 15.625 g/ha: 15.625 g ai/ha; for pest or weed control at 15.625 g/ha / pest or weed control at 250 g/ha: read-out: Foxtail, Giant damage rating (100=total damage to plant; 0=no damage to plant); for pest or weed control at 62.5 g/ha: 62.5 g ai/ha, 100=total damage to plant, 0=no damage to plant, read-out: Foxtail, Giant damage rating; for pest or weed control at 250 g/ha: 250 g ai/ha
Procedure, shortened: as §1

[4] = system: ivy-leaved morning glory (Ipomoea hederacea); assay: Test G Pre-Emergence Protocol; settings: Ipomoea, pre-emergence, 312 h, evaluated after 13 days; for pest or weed control at 15.625 g/ha: 15.625 g ai/ha; for pest or weed control at 15.625 g/ha / pest or weed control at 250 g/ha: read-out: Morningglory, Ivy-leaved damage rating (100=total damage to plant; 0=no damage to plant); for pest or weed control at 62.5 g/ha: 62.5 g ai/ha, 100=total damage to plant, 0=no damage to plant, read-out: Morningglory, Ivy-leaved damage rating; for pest or weed control at 250 g/ha: 250 g ai/ha
Procedure, shortened: as §1

[5] = system: redroot pigweed (Amaranthus retroflexus); assay: Test G Pre-Emergence Protocol; settings: Amaranthus retroflexus, pre-emergence, 312 h, evaluated after 13 days; for pest or weed control at 15.625 g/ha: 15.625 g ai/ha; for pest or weed control at 15.625 g/ha / pest or weed control at 250 g/ha: read-out: Pigweed, Redroot damage rating (100=total damage to plant; 0=no damage to plant); for pest or weed control at 62.5 g/ha: 62.5 g ai/ha, 100=total damage to plant, 0=no damage to plant, read-out: Pigweed, Redroot damage rating; for pest or weed control at 250 g/ha: 250 g ai/ha
Procedure, shortened: as §1

[6] = system: velvetleaf (Abutilon theophrasti); assay: Test G Pre-Emergence Protocol; settings: Abutilon theophrasti, pre-emergence, 312 h, evaluated after 13 days; for pest or weed control at 15.625 g/ha: 15.625 g ai/ha; for pest or weed control at 15.625 g/ha / pest or weed control at 250 g/ha: read-out: Velvetleaf damage rating (100=total damage to plant; 0=no damage to plant); for pest or weed control at 62.5 g/ha: 62.5 g ai/ha, 100=total damage to plant, 0=no damage to plant, read-out: Velvetleaf damage rating; for pest or weed control at 250 g/ha: 250 g ai/ha
Procedure, shortened: as §1

[7] = system: barnyardgrass (Echinochloa crus-galli); assay: Test G Post-Emergence Protocol; settings: Echinochloa crus-galli, post-emergence, 312 h, read-out: Barnyardgrass damage rating; for pest or weed control at 15.625 g/ha: 15.625 g ai/ha, evaluated after 13 days (100=total damage to plant; 0=no damage to plant); for pest or weed control at 62.5 g/ha: 62.5 g ai/ha; for pest or weed control at 62.5 g/ha / pest or weed control at 250 g/ha: evaluated after 13 days, 100=total damage to plant, 0=no damage to plant; for pest or weed control at 250 g/ha: 250 g ai/ha
Procedure, shortened: (§2)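 Post-emergence herbicidal damage, scored visually 0–100 at 13 days. Application at 15.625, 62.5 or 250 g/ha onto 8-day-old plants grown under glasshouse control.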

corn (Zea mays) [8] = assay: Test G Post-Emergence Protocol; settings: Zea mays, post-emergence, 312 h, read-out: Corn damage rating; for plant injury at 15.625 g/ha: 15.625 g ai/ha, evaluated after 13 days (100=total damage to plant; 0=no damage to plant); for plant injury at 62.5 g/ha: 62.5 g ai/ha; for plant injury at 62.5 g/ha / plant injury at 250 g/ha: evaluated after 13 days, 100=total damage to plant, 0=no damage to plant; for plant injury at 250 g/ha: 250 g ai/ha
Procedure, shortened: as §2

[9] = system: giant foxtail (Setaria faberi); assay: Test G Post-Emergence Protocol; settings: Setaria faberi, post-emergence, 312 h, read-out: Foxtail, Giant damage rating; for pest or weed control at 15.625 g/ha: 15.625 g ai/ha, evaluated after 13 days (100=total damage to plant; 0=no damage to plant); for pest or weed control at 62.5 g/ha: 62.5 g ai/ha; for pest or weed control at 62.5 g/ha / pest or weed control at 250 g/ha: evaluated after 13 days, 100=total damage to plant, 0=no damage to plant; for pest or weed control at 250 g/ha: 250 g ai/ha
Procedure, shortened: as §2

[10] = system: ivy-leaved morning glory (Ipomoea hederacea); assay: Test G Post-Emergence Protocol; settings: Ipomoea, post-emergence, 312 h, read-out: Morningglory, Ivy-leaved damage rating; for pest or weed control at 15.625 g/ha: 15.625 g ai/ha, evaluated after 13 days (100=total damage to plant; 0=no damage to plant); for pest or weed control at 62.5 g/ha: 62.5 g ai/ha; for pest or weed control at 62.5 g/ha / pest or weed control at 250 g/ha: evaluated after 13 days, 100=total damage to plant, 0=no damage to plant; for pest or weed control at 250 g/ha: 250 g ai/ha
Procedure, shortened: as §2

[11] = system: redroot pigweed (Amaranthus retroflexus); assay: Test G Post-Emergence Protocol; settings: Amaranthus retroflexus, post-emergence, 312 h, read-out: Pigweed, Redroot damage rating; for pest or weed control at 15.625 g/ha: 15.625 g ai/ha, evaluated after 13 days (100=total damage to plant; 0=no damage to plant); for pest or weed control at 62.5 g/ha: 62.5 g ai/ha; for pest or weed control at 62.5 g/ha / pest or weed control at 250 g/ha: evaluated after 13 days, 100=total damage to plant, 0=no damage to plant; for pest or weed control at 250 g/ha: 250 g ai/ha
Procedure, shortened: as §2

[12] = system: velvetleaf (Abutilon theophrasti); assay: Test G Post-Emergence Protocol; settings: Abutilon theophrasti, post-emergence, 312 h, read-out: Velvetleaf damage rating; for pest or weed control at 15.625 g/ha: 15.625 g ai/ha, evaluated after 13 days (100=total damage to plant; 0=no damage to plant); for pest or weed control at 62.5 g/ha: 62.5 g ai/ha; for pest or weed control at 62.5 g/ha / pest or weed control at 250 g/ha: evaluated after 13 days, 100=total damage to plant, 0=no damage to plant; for pest or weed control at 250 g/ha: 250 g ai/ha
Procedure, shortened: as §2

SMILES | pest or weed control at 15.625 g/ha [1] [%] | pest or weed control at 62.5 g/ha [1] [%] | pest or weed control at 250 g/ha [1] [%] | plant injury at 15.625 g/ha (corn (Zea mays) [2]) [%] | plant injury at 62.5 g/ha (corn (Zea mays) [2]) [%] | plant injury at 250 g/ha (corn (Zea mays) [2]) [%] | pest or weed control at 15.625 g/ha [3] [%] | pest or weed control at 62.5 g/ha [3] [%] | pest or weed control at 250 g/ha [3] [%] | pest or weed control at 15.625 g/ha [4] [%] | pest or weed control at 62.5 g/ha [4] [%] | pest or weed control at 250 g/ha [4] [%] | pest or weed control at 15.625 g/ha [5] [%] | pest or weed control at 62.5 g/ha [5] [%] | pest or weed control at 250 g/ha [5] [%] | pest or weed control at 15.625 g/ha [6] [%] | pest or weed control at 62.5 g/ha [6] [%] | pest or weed control at 250 g/ha [6] [%] | pest or weed control at 15.625 g/ha [7] [%] | pest or weed control at 62.5 g/ha [7] [%] | also measured
CCOc1cc([C@@H]2CN(C)C(=O)[C@H]2C(=O)Nc2cccc(F)c2C)ccc1F (racemic) [Compound 1767] | 20 | 60 | 80 | 0 | 30 | 60 | 60 | 80 | 90 | 0 | 0 | 20 | 0 | 0 | 0 | 0 | 0 | 30 | 40 | 50 | pest or weed control at 250 g/ha [7]: 80%; plant injury at 15.625 g/ha (corn (Zea mays) [8]): 10%; plant injury at 62.5 g/ha (corn (Zea mays) [8]): 10%; plant injury at 250 g/ha (corn (Zea mays) [8]): 60%; pest or weed control at 15.625 g/ha [9]: 70%; pest or weed control at 62.5 g/ha [9]: 70%; pest or weed control at 250 g/ha [9]: 80%; pest or weed control at 15.625 g/ha [10]: 30%; pest or weed control at 62.5 g/ha [10]: 30%; pest or weed control at 250 g/ha [10]: 60%; pest or weed control at 15.625 g/ha [11]: 0%; pest or weed control at 62.5 g/ha [11]: 0%; pest or weed control at 250 g/ha [11]: 20%; pest or weed control at 15.625 g/ha [12]: 0%; pest or weed control at 62.5 g/ha [12]: 0%; pest or weed control at 250 g/ha [12]: 60%
CN1C[C@H](c2ccnc(C(C)(C)C)n2)[C@@H](C(=O)Nc2cccc(F)c2F)C1=O (racemic) [Compound 1769] | 0 | 20 | 70 | 0 | 0 | 0 | 20 | 40 | 90 | 0 | 0 | 0 | 0 | 0 | 0 | 0 | 0 | 0 | 0 | 0 | pest or weed control at 250 g/ha [7]: 50%; plant injury at 15.625 g/ha (corn (Zea mays) [8]): 0%; plant injury at 62.5 g/ha (corn (Zea mays) [8]): 0%; plant injury at 250 g/ha (corn (Zea mays) [8]): 10%; pest or weed control at 15.625 g/ha [9]: 0%; pest or weed control at 62.5 g/ha [9]: 10%; pest or weed control at 250 g/ha [9]: 60%; pest or weed control at 15.625 g/ha [10]: 0%; pest or weed control at 62.5 g/ha [10]: 0%; pest or weed control at 250 g/ha [10]: 20%; pest or weed control at 15.625 g/ha [11]: 0%; pest or weed control at 62.5 g/ha [11]: 0%; pest or weed control at 250 g/ha [11]: 0%; pest or weed control at 15.625 g/ha [12]: 0%; pest or weed control at 62.5 g/ha [12]: 0%; pest or weed control at 250 g/ha [12]: 0%
CN1C[C@H](c2ccnc(C(C)(C)C)n2)[C@@H](C(=O)Nc2ccc(F)c(F)c2F)C1=O (racemic) [Compound 1770] | 0 | 20 | 70 | 0 | 0 | 0 | 0 | 50 | 80 | 0 | 0 | 30 | 0 | 0 | 10 | 0 | 0 | 20 | 0 | 0 | pest or weed control at 250 g/ha [7]: 70%; plant injury at 15.625 g/ha (corn (Zea mays) [8]): 0%; plant injury at 62.5 g/ha (corn (Zea mays) [8]): 0%; plant injury at 250 g/ha (corn (Zea mays) [8]): 0%; pest or weed control at 15.625 g/ha [9]: 0%; pest or weed control at 62.5 g/ha [9]: 20%; pest or weed control at 250 g/ha [9]: 70%; pest or weed control at 15.625 g/ha [10]: 0%; pest or weed control at 62.5 g/ha [10]: 10%; pest or weed control at 250 g/ha [10]: 20%; pest or weed control at 15.625 g/ha [11]: 0%; pest or weed control at 62.5 g/ha [11]: 20%; pest or weed control at 250 g/ha [11]: 40%; pest or weed control at 15.625 g/ha [12]: 0%; pest or weed control at 62.5 g/ha [12]: 10%; pest or weed control at 250 g/ha [12]: 30%
